Assay results reported in patent US20260015350A1, “AZAQUINAZOLINE PAN-KRAS INHIBITORS” (Mirati Therapeutics, Inc., priority 2022, published 2026).

Assays:
[1] = system: KRas-mediated phosphorylation of ERK in H358 cells; test: Inhibition of KRas-mediated phosphorylation of ERK (Cisbio HTRF pERK), H358 cells; format: cell-based; details: Homo sapiens; for IC50: NCI-H358, HTRF pERK
Procedure, shortened: (§1)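 Compound treatment lasts 3 hrs on 6,000 seeded cells, testing 10 doses from a 10 uM top concentration in 3-fold decrements at 0.8% final DMSO. Trametinib at 0.2 uM defines the Min signal. Detection is HTRF on cold-lysed cell extracts.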

KRas^G12D = target: T1, KRas^G12D (Homo sapiens, UniProt P01116, G12D); test: KRas binding assay (TR-FRET tracer displacement), KRas G12D
T1 construct: Biotinylated KRas (corresponding to amino acids 1-169, produced at Accelegan Inc.); biotin (biotinylated); purchased Accelegan Inc
T1 sequence (P01116 1-169 isoform P01116-2 G12D): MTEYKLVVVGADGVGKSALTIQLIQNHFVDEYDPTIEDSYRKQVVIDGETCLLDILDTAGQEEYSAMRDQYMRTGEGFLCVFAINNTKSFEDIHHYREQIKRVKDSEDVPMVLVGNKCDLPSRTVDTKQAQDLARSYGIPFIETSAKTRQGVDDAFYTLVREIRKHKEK

[2] = system: KRas-mediated phosphorylation of ERK in HCT116 cells; test: Inhibition of KRas-mediated phosphorylation of ERK (Cisbio HTRF pERK), HCT116 cells; format: cell-based; details: Homo sapiens; for IC50: HCT-116, HTRF pERK
Procedure, shortened: (§2)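 Following a 3-hr exposure of cells to serially diluted compound (from 10 uM, 3-fold, 10 doses), cold lysis for 40 mins preceded a 2-hr room-temperature HTRF immunoassay for phosphorylated ERK.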

[3] = system: KRas-mediated phosphorylation of ERK in AsPC-1 cells; test: Inhibition of KRas-mediated phosphorylation of ERK (Cisbio HTRF pERK), AsPC-1 cells; format: cell-based; details: Homo sapiens; for IC50: ASPC1, AsPC-1 cells, HTRF pERK
Procedure, shortened: as §1

KRas^G12V = target: T2, KRas^G12V (Homo sapiens, UniProt P01116, G12V); test: KRas binding assay (TR-FRET tracer displacement), KRas G12V
T2 construct: Biotinylated KRas (corresponding to amino acids 1-169, produced at Accelegan Inc.); biotin (biotinylated); purchased Accelegan Inc
T2 sequence (P01116 1-169 isoform P01116-2 G12V): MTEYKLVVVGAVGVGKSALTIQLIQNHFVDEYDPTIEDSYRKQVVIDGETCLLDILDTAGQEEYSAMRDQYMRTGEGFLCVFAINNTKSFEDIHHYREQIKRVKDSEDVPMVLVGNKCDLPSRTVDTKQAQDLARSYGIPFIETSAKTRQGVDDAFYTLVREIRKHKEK

[4] = system: KRas-mediated phosphorylation of ERK in H460 cells; test: Inhibition of KRas-mediated phosphorylation of ERK (Cisbio HTRF pERK), H460 cells; format: cell-based; details: Homo sapiens; for IC50: NCI-H460, HTRF pERK
Procedure, shortened: as §1

[5] = system: KRas-mediated phosphorylation of ERK in MKN1 cells; test: Inhibition of KRas-mediated phosphorylation of ERK (Cisbio HTRF pERK), MKN1 cells; format: cell-based; details: Homo sapiens, MKN-1
Procedure, shortened: (§3)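 Phospho-ERK is quantified by HTRF with the Advanced pERK kit. Cells go in at 6,000/well in RPMI plus 10% FBS overnight at 37° C. under 5% CO2, with a 4-hour covered room-temperature incubation ahead of the read.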

[6] = system: KRas-mediated phosphorylation of ERK in A549 cells; test: Inhibition of KRas-mediated phosphorylation of ERK (Cisbio HTRF pERK), A549 cells; format: cell-based; details: Homo sapiens; for IC50: HTRF pERK
Procedure, shortened: as §2

KRas^G12R = target: T3, KRas^G12R (Homo sapiens, UniProt P01116, G12R); test: KRas binding assay (TR-FRET tracer displacement), KRas G12R
T3 construct: Biotinylated KRas (corresponding to amino acids 1-169, produced at Accelegan Inc.); biotin (biotinylated); purchased Accelegan Inc
T3 sequence (P01116 1-169 isoform P01116-2 G12R): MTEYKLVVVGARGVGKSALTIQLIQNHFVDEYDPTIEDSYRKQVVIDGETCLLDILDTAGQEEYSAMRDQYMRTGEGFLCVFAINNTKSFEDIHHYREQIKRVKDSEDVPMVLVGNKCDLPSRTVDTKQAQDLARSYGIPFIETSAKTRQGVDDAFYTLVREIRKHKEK

[7] = system: KRas-mediated phosphorylation of ERK in H727 cells; test: Inhibition of KRas-mediated phosphorylation of ERK (Cisbio HTRF pERK), H727 cells; format: cell-based; details: Homo sapiens; for IC50: NCI-H727, H727 cells, HTRF pERK
Procedure, shortened: as §1

[8] = system: KRas-mediated phosphorylation of ERK in PSN1 cells; test: Inhibition of KRas-mediated phosphorylation of ERK (Cisbio HTRF pERK), PSN1 cells; format: cell-based; details: Homo sapiens
Procedure, shortened: as §3

Structure (SMILES)	IC50 [1] [nM]	IC50 (KRas^G12D) [nM]	IC50 [2] [nM]	IC50 [3] [nM]	IC50 (KRas^G12V) [nM]	IC50 [4] [nM]	IC50 [5] [nM]	IC50 [6] [nM]	IC50 (KRas^G12R) [nM]	IC50 [7] [nM]	IC50 [8] [nM]	inhibition at 0.1 µM ([1]; NCI-H358, 3 h, single point, 100 nM compound, 3 hrs) [%]	inhibition at 0.1 µM ([2]; HCT-116, 3 h, single point, 100 nM compound, 3 hrs) [%]	inhibition at 0.1 µM ([3]; ASPC1, 3 h, single point, 100 nM compound, 3 hrs, AsPC-1 cells) [%]	inhibition at 0.1 µM ([4]; NCI-H460, 3 h, single point, 100 nM compound, 3 hrs) [%]	inhibition at 0.1 µM ([6]; A549, 3 h, single point, 100 nM compound, 3 hrs) [%]	inhibition at 0.1 µM ([7]; NCI-H727, 3 h, single point, 100 nM compound, 3 hrs, H727 cells) [%]
CCc1c(F)ccc2cc(O)cc(-c3ncc4c(N5C[C@H]6CC[C@@H](C5)[C@@H]6O)nc(OC[C@@]56CCCN5C[C@H](F)C6)nc4c3F)c12 [Example 842, (1R,5S,8R)-3-(7-(8-ethyl-7-fluoro-3-hydroxynaphthalen-1-yl)-8-fluoro-2-(((2R,7aS)-2-fluorotetrahydro-1H-pyrrolizin-7a(5H)-yl)methoxy)pyrido[4,3-d]pyrimidin-4-yl)-3-azabicyclo[3.2.1]octan-8-ol]	9	5	41	479	< 2	20	1	56	< 2	97	> 10000						
CCCCN(C)C(=O)OC[C@@H]1CC[C@@]2(COc3nc(N4CCC[C@@](C)(O)C4)c4cnc(-c5cc(O)cc6ccc(F)c(CC)c56)c(F)c4n3)CCCN12 [Example 874, ((3S,7aR)-7a-(((7-(8-ethyl-7-fluoro-3-hydroxynaphthalen-1-yl)-8-fluoro-4-((R)-3-hydroxy-3-methylpiperidin-1-yl)pyrido[4,3-d]pyrimidin-2-yl)oxy)methyl)hexahydro-1H-pyrrolizin-3-yl)methyl butyl(methyl)carbamate]	16	< 2	48	12	2	21	22	22	3	81	2070						
CCc1c(F)ccc2cc(O)cc(-c3ncc4c(N5CC6CCC(C5)C6CCO)nc(OC[C@@]56CCCN5C[C@H](F)C6)nc4c3F)c12 (stereo partly drawn) [Example 847, 5-ethyl-6-fluoro-4-(8-fluoro-2-(((2R,7aS)-2-fluorotetrahydro-1H-pyrrolizin-7a(5H)-yl)methoxy)-4-((1R,5S,8S)-8-(2-hydroxyethyl)-3-azabicyclo[3.2.1]octan-3-yl)pyrido[4,3-d]pyrimidin-7-yl)naphthalen-2-ol]	494	140	1430	4520	20	582	270	1820	39	1640	> 10000						
CCc1c(F)ccc2cc(O)cc(-c3ncc4c(N5CC6CCC(C5)C6C(N)=O)nc(OC[C@@]56CCCN5C[C@H](F)C6)nc4c3F)c12 (stereo partly drawn) [Example 861, 3-(7-(8-ethyl-7-fluoro-3-hydroxynaphthalen-1-yl)-8-fluoro-2-(((2R,7aS)-2-fluorohexahydro-1H-pyrrolizin-7a-yl)methoxy)pyrido[4,3-d]pyrimidin-4-yl)-3-azabicyclo[3.2.1]octane-8-carboxamide]	45	4	254	1450	< 2	173	1	1340	< 2	592	> 10000						
CCc1c(F)ccc2cc3[nH]ncc3c(-c3ncc4c(N5CCC[C@]6(C5)NC(=O)NC6=O)nc(OC[C@@]56CCCN5C[C@H](F)C6)nc4c3F)c12 [Example 915, (5R)-7-(7-(5-ethyl-6-fluoro-1H-benzo[f]indazol-4-yl)-8-fluoro-2-(((2R,7aS)-2-fluorotetrahydro-1H-pyrrolizin-7a(5H)-yl)methoxy)pyrido[4,3-d]pyrimidin-4-yl)-1,3,7-triazaspiro[4.5]decane-2,4-dione]	9	< 2	60	94	< 2	36	14	51	< 2	74	1550						
CCc1c(F)ccc2cc(O)cc(-c3ncc4c(N5CC6CCC(C5)C65OCCO5)nc(OC[C@@]56CCCN5C[C@H](F)C6)nc4c3F)c12 [Example 883, 5-ethyl-6-fluoro-4-(8-fluoro-2-(((2R,7aS)-2-fluorotetrahydro-1H-pyrrolizin-7a(5H)-yl)methoxy)-4-(3-azaspiro[bicyclo[3.2.1]octane-8,2′-[1,3]dioxolan]-3-yl)pyrido[4,3-d]pyrimidin-7-yl)naphthalen-2-ol]	95	53	772	1170	7	211	94	822	12	252	> 10000						
CCc1c(F)ccc2cc(O)cc(-c3ncc4c(N5CCC[C@@](C)(O)C5)nc(OC[C@@]56CCCN5[C@H](CNS(=O)(=O)N(C)C)CC6)nc4c3F)c12 [Example 789, (R)-1-(7-(8-ethyl-7-fluoro-3-hydroxynaphthalen-1-yl)-8-fluoro-2-(((3S,7aS)-3-(((dimethylsulfamoyl)amino)methyl)tetrahydro-1H-pyrrolizin-7a(5H)-yl)methoxy)pyrido[4,3-d]pyrimidin-4-yl)-3-methylpiperidin-3-ol]		< 2		32	< 2		6		< 2	116	1750	97	55	77	76	57	43
CCc1c(F)ccc2cc(O)cc(-c3ncc4c(N5CC6CCC(C5)C6(C)O)nc(OC[C@@]56CCCN5C[C@H](F)C6)nc4c3F)c12 (stereo partly drawn) [Example 846, (1R,5S,8R)-3-(7-(8-ethyl-7-fluoro-3-hydroxynaphthalen-1-yl)-8-fluoro-2-(((2R,7aS)-2-fluorotetrahydro-1H-pyrrolizin-7a(5H)-yl)methoxy)pyrido[4,3-d]pyrimidin-4-yl)-8-methyl-3-azabicyclo[3.2.1]octan-8-ol]	746	159	572	4470	28	238	102	2680	38	2850	> 10000						
CCc1c(F)ccc2cc(O)cc(-c3ncc4c(N5CC6CCC(C5)C6CC(N)=O)nc(OC[C@@]56CCCN5C[C@H](F)C6)nc4c3F)c12 (stereo partly drawn) [Example 859, 2-((1R,5S,8S)-3-(7-(8-ethyl-7-fluoro-3-hydroxynaphthalen-1-yl)-8-fluoro-2-(((2R,7aS)-2-fluorotetrahydro-1H-pyrrolizin-7a(5H)-yl)methoxy)pyrido[4,3-d]pyrimidin-4-yl)-3-azabicyclo[3.2.1]octan-8-yl)acetamide]	1140	51	1260	> 10000	17	892	56	> 10000	13	5480	> 10000						
CCc1c(F)ccc2cc(O)cc(-c3ncc4c(N5CCC[C@@](C)(O)C5)nc(OC[C@]56CCCN5[C@@H](COC)CC6)nc4c3F)c12 [Example 877, (R)-1-(7-(8-ethyl-7-fluoro-3-hydroxynaphthalen-1-yl)-8-fluoro-2-(((3R,7aR)-3-(methoxymethyl)tetrahydro-1H-pyrrolizin-7a(5H)-yl)methoxy)pyrido[4,3-d]pyrimidin-4-yl)-3-methylpiperidin-3-ol]	40	3	176	79	3	86	104	92	5	189	2150						
